Data: patent US11466044B2 (WAYNE STATE UNIVERSITY, priority 2017, dated 2022)
Converted amounts (≈) assume the structure as drawn. Where two headings read alike, the source gives them in different places.

How the values were obtained:
[1] = tested on: Enterobacter cloacae AG290; assay: MIC by broth microdilution, Enterobacter cloacae; format: cell-based; settings: strain AG290 Enterobacter cloacae
[2] = tested on: wild type bacterial ribosomes; assay: in-vitro translation assay, bacterial ribosomes; format: biochemical; settings: bacterial ribosome; Table 3 (Example 1); read-out: IC50 Bac
Source text: (§1) The antiribosomal activity of these compounds was investigated with cell-free translation assays using both wild type bacterial ribosomes and hybrid ribosomes carrying eukaryotic decoding A sites enabling the prediction of selectivity.

M. smegmatis SZ380 = assay: MIC by broth microdilution, M. smegmatis
[3] = tested on: Acinetobacter baumannii pittii AG225; assay: MIC by broth microdilution, Acinetobacter baumannii; format: cell-based; settings: strain AG225 Acinetobacter baumannii pittii
P aeruginosa = assay: MIC by broth microdilution, P aeruginosa isolates; format: cell-based, Pseudomonas aeruginosa; settings: for MIC50: Pseudomonas aeruginosa, Table 1 (Example 1)
N. gonorrhoeae = assay: Disk diffusion, N. gonorrhoeae; format: cell-based
MRSA = assay: MIC by broth microdilution, MRSA isolates; format: cell-based; settings: for MIC50: Staphylococcus aureus, MRSA, Table 1 (Example 1)
[4] = tested on: E coli carrying specific resistance determinants; assay: MIC by broth microdilution, E coli carrying specific resistance determinants; format: cell-based; settings: for MIC: Escherichia coli
[5] = tested on: mitochondrial ribosome (human chimeric); format: biochemical; settings: mitochondrial; Table 3 (Example 1); read-out: IC50 Mit
Source text: as §1

[6] = tested on: cytosolic ribosome (human chimeric); format: biochemical; settings: cytosolic; Table 3 (Example 1); read-out: IC50 Cyt
Source text: as §1

E coli wild type = assay: MIC by broth microdilution, wild type E coli; format: cell-based; settings: for MIC / MIC50: Escherichia coli; for MIC50: Table 1 (Example 1)
[7] = tested on: Klebsiella pneumonia AG215; assay: MIC by broth microdilution, Klebsiella pneumonia; format: cell-based; settings: strain AG215 Klebsiella pneumonia

NCC1OC(OC2C(CNC=O)OC(OC3C(O)C(N)CC(N)C3OC3OC(CO)C(O)CC3N)C2O)C(N)C(O)C1O (centres unmarked) [Compound 153, 3′,5″-Dideoxy-5″-formamido-paromomycin]
MIC ([1]; read-out: MIC AG290 E. cloacae): 2 µg/mL (≈ 3.19 µM)
IC50 [2]: 0.12 µM
MIC (M. smegmatis SZ380; Mycolicibacterium smegmatis, SZ380, read-out: MIC SZ380 M. smegmatis, strain SZ380 Mycobacterium smegmatis): 1 µg/mL (≈ 1.6 µM)
MIC [3]: 4 µg/mL (≈ 6.38 µM)
MIC50 (P aeruginosa; strain AG31, read-out: MIC50 P aeruginosa AG31): 32 to 64 µg/mL (≈ 51.1 to 102 µM)
MIC50 (P aeruginosa; strain AG32, read-out: MIC50 P aeruginosa AG32): 32 µg/mL (≈ 51.1 µM)
MIC50 (P aeruginosa; strain AG33, read-out: MIC50 P aeruginosa AG33): > 32 µg/mL
MIC (P aeruginosa; strain AG220 Pseudomonas aeruginosa ATCC27853, read-out: MIC AG220 P. aerugin): 8 µg/mL (≈ 12.8 µM)
zone of inhibition at 25 nmol/disc (N. gonorrhoeae; Neisseria gonorrhoeae): 13 mm
MIC50 (MRSA; strain AG38, read-out: MIC50 MRSA AG38): 4 µg/mL (≈ 6.38 µM)
MIC50 (MRSA; strain AG39, read-out: MIC50 MRSA AG39): > 128 µg/mL
MIC50 (MRSA; strain AG42, read-out: MIC50 MRSA AG42): > 128 µg/mL
MIC50 (MRSA; strain AG44, read-out: MIC50 MRSA AG44): 4 µg/mL (≈ 6.38 µM)
MIC ([4]; read-out: MIC AG037 E. coli APH(3′)-III): 2 µg/mL (≈ 3.19 µM)
MIC ([4]; read-out: MIC AG163 E. coli APH(3′)-I): 4 to 8 µg/mL (≈ 6.38 to 12.8 µM)
MIC ([4]; read-out: MIC AG166 E. coli APH(3′)-II): 8 to 16 µg/mL (≈ 12.8 to 25.5 µM)
MIC ([4]; read-out: MIC APH(3)-VI): 2 to 4 µg/mL (≈ 3.19 to 6.38 µM)
MIC ([4]; read-out: MIC APH(3′)-I): 2 µg/mL (≈ 3.19 µM)
MIC ([4]; read-out: MIC APH(3′)-II): 2 µg/mL (≈ 3.19 µM)
MIC ([4]; read-out: MIC APH(3′)-III): 2 µg/mL (≈ 3.19 µM)
MIC ([4]; read-out: MIC E coli AG007 ANT(3″) AAC(3)-I): 4 µg/mL (≈ 6.38 µM)
MIC ([4]; read-out: MIC E coli AG103 ArmA): 32 µg/mL (≈ 51.1 µM)
MIC ([4]; read-out: MIC E coli AG163/164 APH(3′)-Ia): 4 to 8 µg/mL (≈ 6.38 to 12.8 µM)
MIC ([4]; read-out: MIC E coli AG166 APH(3′)-IIa): 8 to 16 µg/mL (≈ 12.8 to 25.5 µM)
MIC ([4]; read-out: MIC pH421 E. coli APH(3′)-I): 2 µg/mL (≈ 3.19 µM)
MIC ([4]; read-out: MIC pH422 E. coli APH(3′)-II): 4 µg/mL (≈ 6.38 µM)
MIC ([4]; read-out: MIC pH423 E. coli APH(3′)-VI): 2 to 4 µg/mL (≈ 3.19 to 6.38 µM)
IC50 [5]: 144 µM
IC50 [6]: 90 µM
MIC (E coli wild type; AG006 wt, Table 2 (Example 1), read-out: MIC E coli AG006 wt): 2 µg/mL (≈ 3.19 µM)
MIC (E coli wild type; AG102 wt, Table 2 (Example 1), read-out: MIC E coli AG102 wt): 2 µg/mL (≈ 3.19 µM)
MIC (E coli wild type; AG160 wt, Table 2 (Example 1), read-out: MIC E coli AG160 wt): 2 to 4 µg/mL (≈ 3.19 to 6.38 µM)
MIC (E coli wild type; ATCC25922, strain AG212 E. coli (ATCC25922), read-out: MIC AG212 E. coli): 4 µg/mL (≈ 6.38 µM)
MIC (E coli wild type; WT, Table 3 (Example 1), read-out: MIC WT): 2 µg/mL (≈ 3.19 µM)
MIC (E coli wild type; clinical isolate AG160 WT, Table 2 (Example 4), read-out: MIC AG160 E. coli WT): 2 to 4 µg/mL (≈ 3.19 to 6.38 µM)
MIC (E coli wild type; engineered strain pH430 WT, Table 2 (Example 4), read-out: MIC pH430 E. coli WT): 2 µg/mL (≈ 3.19 µM)
MIC50 (E coli wild type; strain AG01, read-out: MIC50 E coli AG01): 8 to 16 µg/mL (≈ 12.8 to 25.5 µM)
MIC50 (E coli wild type; strain AG03, read-out: MIC50 E coli AG03): 8 µg/mL (≈ 12.8 µM)
MIC50 (E coli wild type; strain AG55, read-out: MIC50 E coli AG55): 8 to 16 µg/mL (≈ 12.8 to 25.5 µM)
MIC ([7]; Klebsiella pneumoniae, read-out: MIC AG215 K. pneumon): 1 to 2 µg/mL (≈ 1.6 to 3.19 µM)

C[C@@H](O)[C@H]1O[C@H](O[C@H]2[C@H](O[C@@H]3O[C@H](CO)[C@@H](O[C@H]4O[C@@H](CN)[C@@H](O)[C@H](O)[C@H]4N)[C@H]3O)[C@@H](O)[C@H](N)C[C@@H]2N)[C@H](N)[C@@H](O)[C@@H]1O [Compound 155, 6′(R)-6′-C-Methylparomomycin]
MIC AG290 E. cloacae [1]: 2 to 4 µg/mL
MIC SZ380 M. smegmatis (M. smegmatis SZ380; strain SZ380 Mycobacterium smegmatis): 4 µg/mL (≈ 6.35 µM)
MIC AG225 A. baumannii [3]: 4 µg/mL (≈ 6.35 µM)
MIC AG220 P. aerugin (P aeruginosa; strain AG220 Pseudomonas aeruginosa ATCC27853): >32 µg/mL
Disk diffusion 25 nmol N. gonorrhoeae (N. gonorrhoeae; 25 nmol): 8 mm
MIC50 MRSA AG38 (MRSA; strain AG38, Table 1 (Example 2)): 8 µg/mL (≈ 12.7 µM)
MIC50 MRSA AG39 (MRSA; strain AG39, Table 1 (Example 2)): >64 µg/mL
MIC50 MRSA AG42 (MRSA; strain AG42, Table 1 (Example 2)): >64 µg/mL
MIC50 MRSA AG44 (MRSA; strain AG44, Table 1 (Example 2)): 4 µg/mL (≈ 6.35 µM)
MIC50 E coli AG036 ANT(4′,4″) ([4]; AG036 ANT(4′,4″), Table 2B (Example 2)): >32 µg/mL
MIC50 E coli AG037 APH(3′)-III ([4]; AG037 APH(3′)-III, Table 2B (Example 2)): >32 µg/mL
MIC50 E coli AG103 armA ([4]; AG103 armA, Table 2B (Example 2)): 8 µg/mL (≈ 12.7 µM)
MIC50 E coli pH414 AAC(6′)-I ([4]; pH414 AAC(6′)-I, Table 2B (Example 2)): 2 μg/ml
MIC50 E coli pH415 AAC(6′)-II ([4]; pH415 AAC(6′)-II, Table 2B (Example 2)): 2 μg/ml
MIC50 E coli pH421 APH(3′)-I ([4]; pH421 APH(3′)-I, Table 2B (Example 2)): >32 μg/ml
MIC50 E coli pH422 APH(3′)-II ([4]; pH422 APH(3′)-II, Table 2B (Example 2)): >32 μg/ml
MIC50 E coli pH423 APH(3)-VI ([4]; pH423 APH(3)-VI, Table 2B (Example 2)): >32 μg/ml
MIC50 E coli pH432 ANT(4′) ([4]; pH432 ANT(4′), Table 2B (Example 2)): 2 μg/ml
MIC50 E coli BM13 (AG06) wt (E coli wild type; BM13 (AG06) wt, Table 2A (Example 2)): 2 µg/mL (≈ 3.18 µM)
MIC50 E coli pH430 WT (E coli wild type; pH430 WT, Table 2B (Example 2)): 1-2 μg/ml
MIC50 E coli AG01 (E coli wild type; strain AG01, Table 1 (Example 2)): 8 to 16 µg/mL
MIC50 E coli AG03 (E coli wild type; strain AG03, Table 1 (Example 2)): 8 to 16 µg/mL
MIC50 E coli AG55 (E coli wild type; strain AG55, Table 1 (Example 2)): 8 to 16 µg/mL
MIC AG212 E. coli (E coli wild type; strain AG212 E. coli (ATCC25922)): 4 µg/mL (≈ 6.35 µM)
MIC AG215 K. pneumon [7]: 2 µg/mL (≈ 3.18 µM)
